We go through 28 compounds from patent US9868727B2, “Factor XIa inhibitors” (Merck Sharp & Dohme Corp., priority 2014, dated 2018).

Broadly, the IC50 is the concentration needed to halve the response being measured.

T1 sequence (P03951 388-625 limits assumed): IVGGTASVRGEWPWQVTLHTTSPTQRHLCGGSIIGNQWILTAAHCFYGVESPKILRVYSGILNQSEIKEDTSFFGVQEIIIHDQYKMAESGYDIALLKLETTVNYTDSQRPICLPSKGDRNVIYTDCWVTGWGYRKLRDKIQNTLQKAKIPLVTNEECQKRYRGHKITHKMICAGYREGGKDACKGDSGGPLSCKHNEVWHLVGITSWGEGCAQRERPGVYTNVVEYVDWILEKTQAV
T1 sequence (P03951 19-387 partner limits assumed): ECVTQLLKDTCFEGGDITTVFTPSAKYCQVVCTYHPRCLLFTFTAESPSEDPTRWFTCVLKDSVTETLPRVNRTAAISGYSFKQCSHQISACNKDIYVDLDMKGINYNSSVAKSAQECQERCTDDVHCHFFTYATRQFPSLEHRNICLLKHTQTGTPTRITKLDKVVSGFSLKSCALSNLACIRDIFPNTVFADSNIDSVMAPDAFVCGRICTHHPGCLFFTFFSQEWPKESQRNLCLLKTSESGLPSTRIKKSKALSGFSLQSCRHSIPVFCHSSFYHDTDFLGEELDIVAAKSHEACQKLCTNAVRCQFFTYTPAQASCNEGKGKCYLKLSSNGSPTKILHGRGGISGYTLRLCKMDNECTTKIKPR
T2 sequence (P03952 391-638 limits assumed): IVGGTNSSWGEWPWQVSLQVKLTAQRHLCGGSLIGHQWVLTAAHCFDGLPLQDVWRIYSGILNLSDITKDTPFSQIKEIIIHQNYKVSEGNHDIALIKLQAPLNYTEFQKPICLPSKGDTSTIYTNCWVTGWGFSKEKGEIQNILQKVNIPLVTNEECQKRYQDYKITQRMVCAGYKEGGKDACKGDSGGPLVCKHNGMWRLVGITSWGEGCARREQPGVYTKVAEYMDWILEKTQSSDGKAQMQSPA
T2 sequence (P03952 20-390 partner limits assumed): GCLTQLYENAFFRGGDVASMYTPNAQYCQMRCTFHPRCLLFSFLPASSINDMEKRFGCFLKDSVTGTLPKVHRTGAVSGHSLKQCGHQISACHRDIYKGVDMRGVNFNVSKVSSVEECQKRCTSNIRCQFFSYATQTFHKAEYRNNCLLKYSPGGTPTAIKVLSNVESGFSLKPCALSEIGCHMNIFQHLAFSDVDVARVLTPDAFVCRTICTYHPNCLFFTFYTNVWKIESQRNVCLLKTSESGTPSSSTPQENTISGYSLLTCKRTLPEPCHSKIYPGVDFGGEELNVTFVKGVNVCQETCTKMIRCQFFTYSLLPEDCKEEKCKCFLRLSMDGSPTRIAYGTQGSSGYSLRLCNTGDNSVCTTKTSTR

One assay addresses T1, purified human Factor XIa (Homo sapiens, UniProt P03951).
T1 construct: purified human Factor XIa; purchased Sekisui Diagnostics
The assay can be described thus: Factor XIa Assay. It counts as biochemical. The note with it: fluorogenic substrate Z-Gly-Pro-Arg-AFC 100 μM, 40 pM enzyme, pH 7.4, read-out: F11a IC50. The procedure:
The effectiveness of a compound of the present invention as an inhibitor of Coagulation Factor XIa can be determined using a relevant purified serine protease, and an appropriate synthetic substrate. The rate of hydrolysis of the chromogenic or fluorogenic substrate by the relevant serine protease was measured both in the absence and presence of compounds of the present invention. Assays were conducted at room temperature or at 37° C. […] A decrease in the rate of fluorescence change in the presence of inhibitor is indicative of enzyme inhibition. Such methods are known to one skilled in the art. […]
Factor XIa determinations were made in 50 mM HEPES buffer at pH 7.4 containing 150 mM NaCl, 5 mM CaCl2, and 0.1% PEG 8000 (polyethylene glycol; JT Baker or Fisher Scientific). Determinations were made using purified human Factor XIa at a final concentration of 40 pM (Sekisui Diagnostics) and he synthetic substrate, Z-Gly-Pro-Arg-AFC, TFA salt (Sigma #C0980) at a concentration of 100 μM.
Activity assays were performed by diluting a stock solution of substrate at least tenfold to a final concentration ≦0.1 Km into a solution containing enzyme or enzyme equilibrated with inhibitor. Times required to achieve equilibration between enzyme and inhibitor were determined in control experiments. Initial velocities of product formation in the absence (VO) or presence of inhibitor (Vi) were measured. Assuming competitive inhibition, and that unity is negligible compared Km/[S], [I]/e, and [I]/e (where [S], [I], and e respectively represent the total concentrations, of substrate, inhibitor and enzyme), the equilibrium constant (Ki) for dissociation of the inhibitor from the enzyme can be obtained from the dependence of VO/Vi on [I] shown in the following equation.
On to `COC(=O)Nc1ccc(-c2c[nH]c(C(Cc3ccc(F)cc3)c3ccc(-c4c(C#N)ccc(Cl)c4F)c[n+]3[O-])n2)cc1` (racemic) [Example 14], for which the IC50 came to 59.9 nM. On to `COC(=O)Nc1ccc(-c2c[nH]c(C(Cc3ccc(F)cc3)c3ccc(-c4cc(Cl)ccc4OC(F)F)c[n+]3[O-])n2)cc1` (racemic) [Example 15], for which the IC50 amounted to 34.2 nM. Still for that read-out and setting: in the case of `CC(C)OC(=O)Nc1ccc(-c2cnc(C(CC3CC3)c3ccc(-c4cc(Cl)ccc4-n4cnnn4)c[n+]3[O-])[nH]2)cc1` (racemic) [Example 46] it was 2.91 nM; in that of `COC(=O)Nc1ccc(-c2cnc(C(CC3CC3)c3ccc(-c4cc(Cl)ccc4-n4ccnn4)c[n+]3[O-])[nH]2)cc1` (racemic) [Example 65, 5-(5-Chloro-2-(1H-1,2,3-triazol-1-yl)phenyl)-2-(2-cyclopropyl-1-(5-(4-((methoxycarbonyl)amino)phenyl)-1H-imidazol-2-yl)ethyl)pyridine 1-oxide], 11.9 nM. The same measure, in the same setting: in the case of `COC(=O)Nc1ccc(-c2cnc(C(CC3CC3)c3ccc(-c4cc(Cl)ccc4-n4cnnc4)c[n+]3[O-])[nH]2)cc1` (racemic) [Example 66, 5-(5-chloro-2-(4H-1,2,4-triazol-4-yl)phenyl)-2-(2-cyclopropyl-1-(5-(4-((methoxycarbonyl)amino)phenyl)-1H-imidazol-2-yl)ethyl)pyridine 1-oxide] it was 12.9 nM; in that of `COC(=O)Nc1ccc(-c2cnc(C(CC3CC3)c3ccc(-c4cc(Cl)ccc4-n4cncn4)c[n+]3[O-])[nH]2)cc1` (racemic) [Example 68], 631 nM; in that of `COC(=O)Nc1ccc(-c2cnc(C(CC3CC3)c3ccc(-c4cc(Cl)ccc4-c4cocn4)c[n+]3[O-])[nH]2)cc1` (racemic) [Example 71], 834 nM. The same measure, in the same setting: in the case of `COC(=O)Nc1ccc(-c2cnc(C(CC3CC3)c3ccc(-c4cc(Cl)ccc4-n4cccn4)c[n+]3[O-])[nH]2)cc1` (racemic) [Example 73] it was 1000 nM; in that of `COC(=O)Nc1ccc(-c2cnc(C(CC3CC3)c3ccc(-c4cc(Cl)ccc4-n4cc(C(F)F)nn4)c[n+]3[O-])[nH]2)cc1` (racemic) [Example 74], 11 nM; in that of `COC(=O)Nc1ccc(-c2cnc(C(CC3CC3)c3ccc(-c4cc(Cl)ccc4-n4cc(C(F)F)cn4)c[n+]3[O-])[nH]2)cc1` (racemic) [Example 75], 931 nM. With `COC(=O)Nc1ccc(-c2c[nH]c(C(Cc3ccccc3)c3ccc(-c4c(F)ccc(Cl)c4F)c[n+]3[O-])n2)cc1` (single isomer, unassigned) [Example 6], the IC50 was 289 nM. Still for that read-out and setting: in the case of `COC(=O)Nc1ccc(-c2c[nH]c(C(Cc3ccc(F)cc3)c3ccc(-c4cc(Cl)ccc4C(F)F)c[n+]3[O-])n2)cc1` (single isomer, unassigned) [Example 12, 5-(5-chloro-2-(difluoromethyl)phenyl)-2-(2-(4-fluorophenyl)-1-(4-(4-((methoxycarbonyl)amino)phenyl)-1H-imidazol-2-yl)ethyl)pyridine 1-oxide] it was 341 nM; in that of `N#Cc1ccc(-c2c[nH]c(C(Cc3ccc(F)cc3)c3ccc(-c4cc(Cl)ccc4-n4cnnn4)c[n+]3[O-])n2)cc1` (single isomer, unassigned) [Example 19], 311 nM. As for `[O-][n+]1cc(-c2cc(Cl)ccc2-n2cnnn2)ccc1C(Cc1ccc(F)cc1)c1nc(-c2ccc(Cl)cc2)c[nH]1` (single isomer, unassigned) [Example 21], the IC50 was determined as 128 nM. On the same count and under the same terms, next, `N#Cc1ccc(-c2cnc(C(CC3CC3)c3ccc(-c4cc(Cl)ccc4-n4cnnn4)c[n+]3[O-])[nH]2)cc1` (single isomer, unassigned) [Example 30, 4-[2-(1-{5-[5-chloro-2-(1H-tetrazol-1-yl)phenyl]-1-oxidopyridin-2-yl}-2-cyclopropylethyl)-1H-imidazol-5-yl]benzonitrile]: 266 nM; `[O-][n+]1cc(-c2cc(Cl)ccc2-n2cnnn2)ccc1C(CC1CC1)c1ncc(-c2cccc(F)c2)[nH]1` (single isomer, unassigned) [Example 31]: 1000 nM; `N#Cc1cccc(-c2cnc(C(CC3CC3)c3ccc(-c4cc(Cl)ccc4-n4cnnn4)c[n+]3[O-])[nH]2)c1` (single isomer, unassigned) [Example 35]: 1000 nM. The same measure, in the same setting: next, `COC(=O)Nc1ccc(-c2cnc(C(CC3CC3)c3ccc(-c4cc(Cl)ccc4-n4cnnn4)c[n+]3[O-])[nH]2)c(F)c1` (single isomer, unassigned) [Example 37]: 74.8 nM. On the same count and under the same terms, in the case of `Nc1ccc(-c2cnc(C(CC3CC3)c3ccc(-c4cc(Cl)ccc4-n4cnnn4)c[n+]3[O-])[nH]2)c(Cl)n1` (single isomer, unassigned) [Example 48, 6-chloro-5-[2-(1-{5-[5-chloro-2-(1H-tetrazol-1-yl)phenyl]-1-oxidopyridin-2-yl}-2-cyclopropylethyl)-1H-imidazol-5-yl]pyridin-2-amine] it was 72 nM; in that of `O=C(O)c1cccc(-c2cnc(C(CC3CC3)c3ccc(-c4cc(Cl)ccc4-n4cnnn4)c[n+]3[O-])[nH]2)c1F` (single isomer, unassigned) [Example 52, 3-[2-(1-{5-[5-chloro-2-(1H-tetrazol-1-yl)phenyl]-1-oxidopyridin-2-yl}-2-cyclopropylethyl)-1H-imidazol-5-yl]-2-fluorobenzoic acid], 204 nM; in that of `O=C(O)c1cccc(-c2c[nH]c(C(CC3CC3)c3ccc(-c4cc(Cl)ccc4-n4cnnn4)c[n+]3[O-])n2)c1` (single isomer, unassigned) [Example 54], 71 nM. Regarding `O=C(O)c1ccc(-c2cnc(C(CC3CC3)c3ccc(-c4cc(Cl)ccc4-n4cnnn4)c[n+]3[O-])[nH]2)cc1` (single isomer, unassigned) [Example 55], the IC50 was found to be 593 nM. On the same count and under the same terms, next, `NC(=O)c1scc(-c2cnc(C(CC3CC3)c3ccc(-c4cc(Cl)ccc4-n4cnnn4)c[n+]3[O-])[nH]2)c1F` (single isomer, unassigned) [Example 59, 2-(1-(5-(5-carbamoyl-4-fluorothiophen-3-yl)-1H-imidazol-2-yl)-2-cyclopropylethyl)-5-(5-chloro-2-(1H-tetrazol-1-yl)phenyl)pyridine 1-oxide]: 110 nM; `COC(=O)c1scc(-c2cnc(C(CC3CC3)c3ccc(-c4cc(Cl)ccc4-n4cnnn4)c[n+]3[O-])[nH]2)c1F` (single isomer, unassigned) [Example 62, Methyl 4-[2-(1-{5-[5-chloro-2-(1H-tetrazol-1-yl)phenyl]-1-oxidopyridin-2-yl}-2-cyclopropylethyl)-1H-imidazol-5-yl]-3-fluorothiophene-2-carboxylate]: 1000 nM. Turning to `COC(=O)Nc1ccc(-c2cnc(C(CC3CC3)c3ccc(-c4cc(Cl)ccc4-c4cnco4)c[n+]3[O-])[nH]2)cc1` (single isomer, unassigned) [Example 70], the concentration for half-maximal inhibition (IC50) worked out at 1000 nM. Same read-out and setting: next, `COC(=O)Nc1ccc(-c2[nH]c(C(CC3CC3)c3ccc(-c4cc(Cl)ccc4-n4cnnn4)c[n+]3[O-])nc2Cl)cc1` (single isomer, unassigned) [Example 78, 5-(5-chloro-2-(1H-tetrazol-1-yl)phenyl)-2-(1-(4-chloro-5-(4-((methoxycarbonyl)amino)phenyl)-1H-imidazol-2-yl)-2-cyclopropylethyl)pyridine 1-oxide]: 54.4 nM; `COC(=O)Nc1ccc(-c2cnc([C@@H](Cc3ccccc3)c3ccc(-c4cc(Cl)ccc4-c4cnco4)c[n+]3[O-])[nH]2)cc1` [Example 26]: 271 nM.

A further assay concerns the target T2, purified Human plasma kallikrein (Homo sapiens, UniProt P03952).
T2 construct: yields a heavy chain (371 amino acids) and a light chain (248 amino acids); purchased Enzyme Research Laboratories
The assay can be described thus: Kallikrein Assay. It counts as biochemical. The note with it: Plasma Kallekrein IC50; fluorogenic substrate Acetyl-K-P-R-AFC, 0.5 nM enzyme, pH 7.4; read-out: PK IC50. The procedure:
The effectiveness of a compound of the present invention as an inhibitor of Kallikrein can be determined using a relevant purified serine protease, and an appropriate synthetic substrate. The rate of hydrolysis of the chromogenic or fluorogenic substrate by the relevant serine protease was measured both in the absence and presence of compounds of the present invention. Assays were conducted at room temperature or at 37° C. […] A decrease in the rate of fluorescence change in the presence of inhibitor is indicative of enzyme inhibition. Such methods are known to one skilled in the art. The results of this assay are expressed as the inhibitory constant, K1.
Kallikrein determinations were made in 50 mM HEPES buffer at pH 7.4 containing 150 mM NaCl, 5 mM CaCl2, and 0.1% PEG 8000 (polyethylene glycol; Fisher Scientific). Determinations were made using purified Human plasma kallikrein at a final concentration of 0.5 nM (Enzyme Research Laboratories) and the synthetic substrate, Acetyl-K—P—R-AFC (Sigma # C6608) at a concentration of […].
Times required to achieve equilibration between enzyme and inhibitor were determined in control experiments. The reactions were performed under linear progress curve conditions and fluorescence increase measured at 405 Ex/510 Em nm. […] IC50 was determined by inflection point from a four parameter logistic curve fit. Ki was calculated using the Cheng Prusoff equation, Ki=IC50/(1+([S]/Km)).
Consider `COC(=O)Nc1ccc(-c2cnc(C(CC3CC3)c3ccc(-c4cc(Cl)ccc4-n4cnnn4)c[n+]3[O-])[nH]2)cc1` (single isomer, unassigned) [Example 27, 5-(5-chloro-2-(1H-tetrazol-1-yl)phenyl)-2-(2-cyclopropyl-1-(5-(4-((methoxycarbonyl)amino)phenyl)-1H-imidazol-2-yl)ethyl)pyridine 1-oxide], for which the IC50 stood at 207 nM.
